Test [1] concerns PC3 cells. Put plainly: Mitochondrial localization by fluorescence microscopy. The settings on record: for effect on mitochondrial repositioning to the cortical cytoskeleton in the presence of PI3K therapy: with PX-866, Antimycin A 30 μM, Oligomycin 2.5 μM, Rotenone 4 μM, CCCP 12.5 μM. The class given is cell-based, human. Here is the method:
Mitochondrial localization. After the indicated transfections or treatments, cells were stained with MitoTracker Red CMXRos (100 nM, 2 h) at 37° C. After fixation with 4% formalin in PBS for 15 min at room temperature, cells were permeabilized with 0.1% Triton X-100/PBS for 5 min, washed, and incubated 30 min with 1% BSA/0.3M glycine/PBS. F-actin was stained with phalloidin Alexa488 (1:1000 dilution) for 30 min at room temperature. Slides were washed and mounted in DAPI-containing Prolong Gold mounting medium (Invitrogen). At least 7 random fields were analyzed by fluorescence microscopy in a Nikon E600 microscope. Composite images were analyzed in Image J, for each cell two lamellipodia were measured to calculate infiltration index, defined as the radial distance from nucleus to furthest mitochondrial string, normalized to the radial distance from nucleus to cell border. In parallel, all cells on the 7 fields were scored into 3 categories, according to gross localization of mitochondria: polarized, pen-nuclear, and infiltrating. For cortical mitochondria quantification, a mask was manually created around the periphery of the cell based on the F-actin channel and subsequently applied to the mitochondria channel to measure intensity at the cortical region (FIG. 8H). The intensity was normalized to total mitochondria intensity per cell and background subtracted. A minimum of 20 cells were analyzed in each independent experiment to obtain mean values. For high resolution imaging of mitochondria in MFN1-depleted cells, slides were sequentially scanned for red, green, and blue fluorescence by a Leica SP5 confocal microscope with a 63× objective and a 20× digital zoom. Full cell z stacks (about 5-8 μm) were postprocessed in Leica Application Suite Advanced Fluorescence (LAS AF) to reduce noise by applying a median filter (two iterations, radius 3) and used to generate max projections.

Test [2] concerns PC3 cells. Kind of test: Tumor cell invasion across Matrigel-coated Transwell inserts. The note with it: for effect on tumor cell invasion in the presence of PI3K therapy: with PX-866, Matrigel, Antimycin A 30 μM, Oligomycin 2.5 μM, Rotenone 4 μM, CCCP 12.5 μM. It counts as cell-based, human. Here is the method: Tumor cell invasion: Experiments were carried out essentially as described (41). Briefly, 8 μm PET transwell migration chambers (Corning) were coated with 150 μl of 80 μg/ml Matrigel (Becton Dickinson). Tumor cells were seeded in duplicates onto the coated transwell filters at a density of 1.25×10^5 cells/well in media containing 2% FCS (FCIII, Hyclone) and media containing 20% FCS was placed in the lower chamber as chemoattractant. Cells were allowed to invade and adhere to the bottom of the plate stained in 0.5% crystal violet/methanol for 10 min, rinsed in tap water and analyzed by bright field microscopy. Digital images were batch imported into ImageJ, thresholded and analyzed with the Analyze particles function. For analysis of tumor cell invasion in 3D spheroids, tissue culture-treated 96-well plates were coated with 50 μl 1% DIFCO Agar Noble (Becton Dickinson). LN229 cells were seeded at 5,000 cells/well and allowed to form spheroids over 72 h. Spheroids were harvested, treated with PX-866 (0-10 µM) and placed in a collagen plug containing EMEM, FBS, L-Glutamine, sodium bicarbonate, and collagen type I (Gibco, 1.5 mg/ml). The collagen plug was allowed to set and 1 ml DMEM with 5% FBS was added to the top of the plug. Cell invasion was analyzed every 24 h and quantified using Image Pro Plus 7, as described^41.
Cell culture and drug treatment: Human GBM LN229, prostate adenocarcinoma PC3, lung carcinoma A549, and mouse fibroblasts NIH3T3 cells were obtained from the American Type Culture Collection (ATCC, Manassas, Va.), and maintained in culture according to the supplier's specifications. Conditioned media was prepared from exponentially growing cultures of NIH3T3 cells as previously described^41, in DMEM supplemented with 4.5 g/l D-glucose, sodium pyruvate, 10 mM HEPES and 10% FBS for 48 h. Where indicated, starvation was carried out in DMEM without glucose for 24 h. PI3K inhibitors were dissolved in DMSO at 10 mM and added to the culture media for 48 h at the following concentrations: AZD6482 at 10 μM, GCD0941 at 2 μM, BKM120 at 0.4 μM and PX-866 at 5 μM. mitoTEMPO was added to the culture media at 50-100 μM, NAC at […], Antimycin A at 30 μM, Oligomycin at 2.5 μM, Rotenone at 4 μM and CCCP at 12.5 μM. For invasions, the antioxidants, ROS scavengers, and ETC inhibitors were added to the top and bottom of the chambers at the moment of cell seeding.

Another test relates to GBM LN229 cells. Put plainly: Human phospho-RTK array, LN229 cells. It counts as cell-based. The settings on record: PX-866 10 μM for 48 h. The text has this:
(§1) The position and identity of phosphorylated proteins are indicated. M, markers.

Test [3] has as its system patient-derived glioblastoma (GBM) organotypic cultures. Kind of test: Kinome profiling (OpenArray real-time PCR) of GBM organotypic cultures. The settings on record: PX-866 10 μM for 48 h vs vehicle. It counts as cell-based, human. Here is the method:
(§2) Organotypic cultures: Short-term organotypic cultures from primary patient samples were established as described^13. Briefly, precise thick tissue slices (300 μm) were obtained by vibratome serial cutting (VT1200, Leica Microsystems, Milan, Italy), and cultured in six-well plates on organotypic inserts (Millicell PICM ORG, Merck Millipore) for up to 48 h in 1 ml of Ham-F12 complete medium supplemented with vehicle (DMSO, 2.5 μl) or pan-PI3K inhibitor […] (10 μM). At the end of the experiment, one tissue slice per condition was formalin-fixed and paraffin-embedded, and further processed for morphological and immunohistochemical analysis. An additional tissue slice was embedded in OCT, and snap-frozen for molecular or immunofluorescence studies.
Kinome profiling and bioinformatics analysis. Transcriptional changes in the human kinome following PI3K inhibition were analyzed using OpenArray real-time PCR amplification. […] The ΔΔCt method was used to calculate fold changes between sample pairs with endogenous control Ct value calculated as average among 15 endogenous controls on the array: ALAS1, B2M, CASC3, G6PD, GAPDH, GUSB, HMBS, HPRT1, IPO8, POLR2A, PPIA, RPLP0, TFRC, UBE2D2, and YWHAZ. The p values for differential expression were calculated using fold changes of 15 endogenous controls as a null distribution.
A general note: In qPCR the cycle at which signal appears reflects the starting amount.

The subject of a further test is GBM organotypic cultures. Kind of test: Human phospho-RTK array, GBM organotypic cultures. The class given is cell-based. The note with it: primary organotypic cultures, PX-866 10 μM for 48 h. Here is the method:
as §1, §2

In test [4] the test system is patient-derived GBM neurospheres. Put plainly: GBM neurosphere formation (number and size). The class given is cell-based, human. The note with it: Gamitrinib 5 μM plus PX-866 10 μM, 48 h. Here is the method: GBM neurospheres: Fresh GBM specimens collected from consenting patients (Division of Neurosurgery, Fondazione IRCCS Ca′ Granda, Milan, Italy) were immediately processed for the isolation of stem cell-containing neurospheres. Briefly, tissues were enzymatically processed with the Tumor Dissociation Kit (Miltenyi Biotech) at 37° C. in combination with the gentleMACS™ Dissociators (Miltenyi Biotech) until achievement of single cell suspension. Then, dissociated GBM cells were grown as spheroid aggregates (neurospheres) as previously described^43 and using the NeuroCult NS-A Proliferation media (StemCell Technologies) supplemented with 20 ng/ml EGF and 10 ng/ml bFGF (Stem Cell Technologies) according to manufacturer's protocol. When pharmacological treatment was performed, neurospheres derived from five GBM patients were mechanically dissociated, stained with PKH26 (Sigma Aldrich) as described^44, and plated at a density of 1000 cells per well in 24-well plates. The intended use of the non-toxic dye PKH26 was for live cell identification and staining. […] During this interval, neurospheres were imaged every 24 h and their size (diameter) and number was assessed by direct counting using ImageJ software. PKH26 was monitored and recorded using the TRITC fluorescent filter. Experiments were performed in duplicates. […]

For test [5], the system named is PC3 cells. Kind of test: Focal adhesion (FA) complexes and mitochondria dual labeling. It counts as cell-based, human. The settings on record: non-toxic concentrations of Gamitrinib (1 μM), 48 h. Here is the method: Focal adhesion (FA) complexes and mitochondria dual labeling. Coverslides were coated with fibronectin (10 μg/ml in PBS) overnight at 4° C., rinsed in PBS and equilibrated at 37° C. with 500 μl of 10% FBS/RPMI. Cells were treated as indicated, tripsinized, washed with 10% FBS/RPMI and plated on fibronectin-coated slides, in the presence of Mitotracker Red CMXRos (100 nM). After 5 h, cells were fixed with 10% formalin in PBS for 15 min at room temperature, permeabilized with 0.1% Triton X-100/PBS for 5 min, washed, and FAs were labeled with primary antibodies diluted in 1% BSA/0.3M glycine/PBS, overnight at 4° C. Either one of the following antibodies were used: rabbit anti-pY925-FAK (1:50, Cell Signaling), mouse anti-Paxillin (1:100, Upstate). Next, slides were washed, incubated with secondary antibodies (1:500, Alexa Fluor 488 conjugated) for 1 h at room temperature, washed and mounted in DAPI-containing Prolong Gold mounting medium (Invitrogen). Slides were sequentially scanned for red, green and blue fluorescence in a Leica SP5 confocal microscope with a 100× objective. Libraries were imported into LASLite and a 3 step z-stack centered at the plane of focal adhesions (±0.5 μm) were used to generate 3D max projections.

Test [6] deals with PC3 cells. Kind of test: Detection of mitochondrial superoxide in live cells (MitoSOX Red). It counts as cell-based, human. The note with it: PX-866 48 h with mitoTEMPO. Here is the method:
Detection of mitochondrial superoxide in live cells. The production of superoxide by mitochondria was visualized in fluorescence microscopy using the MitoSOX™ Red reagent. Briefly, 1.5×10^4 cells were grown on high optical quality 8 well μ-slides (Ibidi) and imaged with a 40× objective on a Nikon TE300 inverted time-lapse microscope equipped with a video system containing an Evolution QEi camera and a time-lapse video cassette recorder. The atmosphere was equilibrated to 37° C. and 5% CO2 in an incubation chamber. Phase contrast and TRITC (TRITC filter cube, excitation wavelength: 532-554 nm, emission wavelength: 570-613 nm) images were captured. To quantitate superoxide levels, files were imported into Image J, masks were manually created around the periphery of the cell based on the Phase image and subsequently applied to the TRITC channel to measure intensity. A minimum of 100 cells were analyzed in each independent experiment to obtain mean values.

Consider “carbonyl cyanide m-chlorophenyl hydrazine [CCCP]”, for which the “effect on mitochondrial repositioning to the cortical cytoskeleton in the presence of PI3K therapy” value in the test with PC3 cells [1] is “inhibited”. Also, the “effect on tumor cell invasion in the presence of PI3K therapy” value in the test with PC3 cells [2] was “inhibited”.
With `C=CCN(/C=C1/C(=O)O[C@H](COC)[C@@]2(C)C1=C(O)C(=O)C1=C2[C@H](OC(C)=O)C[C@]2(C)C(=O)CC[C@@H]12)CC=C` [PX-866], the “phosphorylation, i.e. activation of the GBM kinome” value in the test on GBM LN229 cells and in the test on GBM organotypic cultures was “widespread phosphorylation” throughout. Moreover, the “transcriptional changes of growth factor receptor pathways (kinome)” value in test [3] is listed as “transcriptional upregulation of multiple growth factor receptor pathways”.
Consider `CC[C@H]1/C=C/C=C/C[C@@H](C)[C@H](O)[C@@](C)(O)C(=O)[C@@H](C)[C@H](O)[C@@H](C)C(=O)[C@@H](C)[C@H](O)[C@@H](C)/C=C/C(=O)O[C@@H]2[C@H](C)[C@H](CC1)O[C@]1(CC[C@H](C)[C@H](C[C@@H](C)O)O1)[C@H]2C` [Oligomycin], for which the “effect on mitochondrial repositioning to the cortical cytoskeleton in the presence of PI3K therapy” value with PC3 cells [1] is “inhibited”. The “effect on tumor cell invasion in the presence of PI3K therapy” value with PC3 cells [2] was “inhibited”.
Take Gamitrinib: the “effect on expansion of primary GBM neurospheres mediated by PI3K antagonists” value in test [4] is “abolished”. Further, the “mitochondrial distribution (polarized, perinuclear, infiltrating) with PI3K inhibitors” value with PC3 cells [1] (Gamitrinib in combination with PI3K inhibitors) is “preserved a polarized and perinuclear mitochondrial distribution”. Moreover, the “effect on trafficking of mitochondria to pFAK-containing FA complexes in response to PI3K antagonists” value in the test with PC3 cells [5] is listed as “abolished”. Also, the “effect on increase in tumor cell invasion mediated by PI3K antagonists” value in the test with PC3 cells [2] (Gamitrinib with PX-866 5 μM, Matrigel) is “abolished the increase”.
As to `C=C(C)[C@H]1Cc2c(ccc3c2O[C@@H]2COc4cc(OC)c(OC)cc4[C@@H]2C3=O)O1` [Rotenone], the “effect on mitochondrial repositioning to the cortical cytoskeleton in the presence of PI3K therapy” value in the test on PC3 cells [1] is given as “inhibited”. Moreover, the “effect on tumor cell invasion in the presence of PI3K therapy” value in the test with PC3 cells [2] is on record as “inhibited”.
For Antimycin A, in the test on PC3 cells [1], the “effect on mitochondrial repositioning to the cortical cytoskeleton in the presence of PI3K therapy” value was “inhibited”. In addition, the “effect on tumor cell invasion in the presence of PI3K therapy” value in the test on PC3 cells [2] was “inhibited”.
With `CC(=O)N[C@@H](CS)C(=O)O` [NAC, N-acetyl cysteine], in the test with PC3 cells [2] (increasing concentrations of NAC with PX-866 48 h, Matrigel), the “effect on PI3K therapy-mediated tumor cell invasion” value was “had no effect”.
Regarding `CC1(C)CC(NC(=O)C[P+](c2ccccc2)(c2ccccc2)c2ccccc2)CC(C)(C)N1[O]` [mitoTEMPO], the “effect on mitochondrial repositioning to the cortical cytoskeleton mediated by PI3K inhibitors” value in the test with PC3 cells [1] (mitoTEMPO 50 μM with PI3K inhibitors) is “did not affect”. Further, the “effect on PI3K antagonist-induced mitochondrial superoxide production” value in the test on PC3 cells [6] is reported as “abolished”. In addition, in the test with PC3 cells [2] (mitoTEMPO with PX-866, Matrigel), the “effect on tumor cell invasion mediated by PI3K inhibitors” value is recorded as “did not affect”.

These data come from patent US20170000804A1, “Methods and Compositions for Inhibiting Mitochondrial Trafficking” (The Wistar Institute of Anatomy and Biology, priority 2015, published 2017).
